# Data taken from patent publication US20250009779A1 (priority 2021, published 2025).
# Entries after “also recorded” stand apart in the source; their conditions may differ.
# Key:
# pDCs [1] = format: cell-based, human
# pDCs [2] = format: cell-based, human; remark: listed apart in the source
# pDCs [3] = format: cell-based, human; remark: listed apart in the source
# pDCs [4] = tested on: pDCs
# pDCs [5] = format: cell-based, human; remark: listed apart in the source
# macrophages [6] = format: cell-based, human
# macrophages [7] = assay: FAIRE assay on promoter regions of IL6, TNF and IL12p40 in macrophages; format: cell-based, human; conditions: cells primed with IFN-α 24 hours, then LPS 3 hours, FIG. 4G
# macrophages [8] = assay: Immunoblot of NF-κB and MAPKs signaling in macrophages; format: cell-based, human; conditions: whole cell lysates, FIG. 20B
compound,measurement,setting,value
"O=C(O)CCCCC(CCSCc1ccccc1)SCc1ccccc1 (centres unmarked) [CPI-613, 6,8-bis-benzylthio-octanoic acid]",XBP1 splicing,pDCs [1],no effect
same,"expression of ISGs such as GBP1, IRF7, ISG54, MxB, CXCL10",pDCs [1],inhibited
same,expression of PHGDH,pDCs [1],no effect
same,expression of IFN-α (IFNA),pDCs [1]; 5 h,inhibited
same,secretion of IFN-α,pDCs [2],inhibited
same,intracellular ATP levels in TLR9-activated pDCs,pDCs [3],reduced
same,cell viability,pDCs [4],no effect
Cc1ccc(OCCN(C)C(=O)Cn2cc(NC(=O)CCOc3ccccc3)cn2)cc1 [IXA4],PHGDH gene expression,pDCs [1],induced
N[C@@H](CO)C(=O)O [L-serine],IFN-α secretion by TLR9-activated pDCs,pDCs [2],unaltered
Cc1cc(C)nc(NC(=S)N2CCN(Cc3ccc(C(F)(F)F)cc3)CC2)c1 [NCT-503],IFNA expression by TLR9-activated pDCs facing ER stress,pDCs [1],restored
same,intracellular pyruvate levels in ER stressed-pDCs,pDCs [5],restored
same,intracellular ATP levels under ER stress,pDCs [3],restored
"CC(=O)C(=O)[O-].[Na+] [pyruvate, sodium pyruvate]",IFNA expression by pDCs under ER stress condition,pDCs [1],restore
same,intracellular ATP levels under ER stress,pDCs [3],restored
C/C=C(/C)C(=O)O[C@H]1C(C)=C2[C@H]([C@@H]1OC(=O)CCCCCCC)[C@@](C)(OC(C)=O)C[C@H](OC(=O)CCC)[C@@]1(O)[C@H]2OC(=O)[C@@]1(C)O [thapsigargin],gene encoding phosphoglycerate dehydrogenase (PHGDH) expression,pDCs [1],markedly induced
same,induction of serine amino acid biosynthesis genes,pDCs [1],induction
"O.O=C([O-])CCC(=O)C(=O)[O-].[Na+].[Na+] [α-KG, α-ketoglutaric acid disodium salt hydrate]",intracellular ATP levels under ER stress,pDCs [3],restored
IFN-α,"LPS-induced response in macrophages: TNF, IL6, IL1B, IL12B and IFNB",macrophages [6],superinduction; also recorded: increases
same,TLR4 expression or of the 2 subunits of the IFNAR in the macrophages,macrophages [6],little change
same,chemokine receptors expression on macrophages,macrophages [6],significant impact
same,"inflammatory genes (IL-1β, IL-12p40, IFN-β and CXCL10) expression",macrophages [6],dose-dependent manner
same,chromatin accessibility of IL6 and TNF promoters,macrophages [7],significantly increased; also recorded: increase
same,TLR4-induced IKBα degradation or activation of MAPKs ERK and p38,macrophages [8],minimal effects; also recorded: does not increase
